Where “and” joins values, the source holds several entries; their conditions need not be identical. Equal values may be shown once. Entries after “also recorded” stand apart in the source; their conditions may differ.

Series [1] addresses T1, C34 peptide derived from the C-terminal region of gp41 (residues 628-661) (Human immunodeficiency virus type 1 group M subtype B, UniProt P04578).
T1 construct: the C34 peptide comprises residues 628-661 of the C-region of HIV-1 gp41; purchased Commonwealth Biotechnologies (Richmond, Va.); host or cells: solid-phase synthesis
Description: Interaction with C34 by analytical ultracentrifugation or CD. In kind it is binding, HIV-1. The method, then:
(§1) Circular Dichroism—CD spectra of peptides (at a concentration corresponding to 0.7-0.8 A280) were recorded at 25° C. on a JASCO J-720 spectropolarimeter using a 0.05-cm path length cell.
Sedimentation Equilibrium—Sedimentation equilibrium experiments were conducted at 20.0° C. and three different rotor speeds (16,000, 20,000, and 24,000) on a Beckman Optima XL-A analytical ultracentrifuge. Peptide samples were prepared in 50 mM sodium formate buffer (pH=3) and loaded into the ultracentrifuge cells at nominal loading concentrations of ˜0.2 and 0.7-0.8 A280. Data were analyzed in terms of a single ideal solute to obtain the buoyant molecular mass, M(1−νρ), using the Optima XL-A data analysis software (Beckman). […] J. Biochem. 157:169-180)).

Series [2] in a line: Circular dichroism, secondary structure. It counts as physicochemical. The conditions noted are these: CD at 25° C., program CDNN. The method, then: as §1
Series [3] in a line: Sedimentation equilibrium (analytical ultracentrifugation), oligomeric state. In kind it is physicochemical. The conditions noted are these: 50 mM sodium formate pH 3, 20.0° C. From the text:
[…]. J. Biochem. 157:169-180)).

Series [4] concerns HIV Env-mediated cell fusion. The note with it: read-out: fails to inhibit fusion even at concentrations as high as.
For series [5], the target named is pre-hairpin intermediate of gp41 (Human immunodeficiency virus type 1 group M subtype B, UniProt P04578). Details: species or system HIV-1.
Chain of pre-hairpin intermediate of gp41 (P04578 512-856): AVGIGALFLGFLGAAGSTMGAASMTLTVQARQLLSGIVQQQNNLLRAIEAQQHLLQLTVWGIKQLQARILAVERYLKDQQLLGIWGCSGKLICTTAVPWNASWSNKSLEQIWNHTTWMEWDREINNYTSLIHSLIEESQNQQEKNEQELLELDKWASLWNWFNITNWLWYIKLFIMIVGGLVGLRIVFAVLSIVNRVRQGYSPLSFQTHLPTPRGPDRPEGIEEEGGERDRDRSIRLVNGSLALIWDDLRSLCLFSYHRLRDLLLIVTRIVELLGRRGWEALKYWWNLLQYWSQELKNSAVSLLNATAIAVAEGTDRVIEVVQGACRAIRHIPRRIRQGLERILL

T1 sequence (P04578 628-661): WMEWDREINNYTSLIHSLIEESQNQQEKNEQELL

Consider “SGIVQQLNNQLRAEEANQHLEQLSVWGSKQNQARRL; peptide derived from N36 with nine substitutions at positions a and d of the helical wheel (SGIVQQLNNQLRAEEANQHLEQLSVWGSKQNQARRL) [N36^Mut(a,d)]”, for which the “interaction with C34” value in series [1] was “does not interact with the C34 peptide; also recorded: No evidence of interaction”. The helical content in series [2] is around 20%. Further, the “oligomeric state in solution” value in series [3] is “monomeric; also recorded: monomer”. In addition, the IC50 in series [4] was above 100 µM.

With “Ac-SGIDQEQNNLTRLIEAQIHELQLTQWKIKQLLARIL-NH2 [N36^Mut(e,g)]”, the “interaction with C34” value in series [1] is on record as “does not interact with C34; also recorded: No evidence of interaction”. Besides, the helical content in series [2] is reported as around 80%. The “oligomeric state in solution” value in series [3] was “monodisperse, helical trimer”. For the same substance, the “optimized value of β (heterotrimerization with gp41 relative to Kref^trimer)” value in series [5] is 2.97 and 5.76.

Values taken from patent US20060281673A1, “Novel peptide inhibitor of hiv fusion that disrupts the internal trimeric coiled-coil of gp41” (priority 2003, published 2006).
